Experimental data from the supplement of paper PMC10307832.

Columns and labels:
Assay in all cases: relative viability (nuclei count vs DMSO), 5 days (fraction); higher = more cells survive
[1] = compound: C1/C(=C\C2=CC=CS2)/C(=O)/C(=C/C3=CC=CS3)/C1 + NC(=O)Nc1cc(-c2cccc(F)c2)sc1C(=O)N[C@H]1CCCNC1 [AZD7762] (partner 0.2 µM)
How it was run: (§1)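 Values are medians from duplicate plates. Each reflects relative viability, defined as the nuclei count of treated wells over that of vehicle wells. Lung cancer cell lines in 1536-well plates were pin-tool dosed one day after seeding with one drug alone or with a fixed anchor-drug dose plus five library-drug doses (not always all listed) in √10 steps, then fixed, stained and imaged at 4× after 5 days.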

[2] = compound: C1/C(=C\C2=CC=CS2)/C(=O)/C(=C/C3=CC=CS3)/C1 + Nc1nc2[nH]cc(CCc3ccc(C(=O)N[C@@H](CCC(=O)O)C(=O)O)cc3)c2c(=O)[nH]1 [Pemetrexed] (partner 0.2 µM)
How it was run: as §1

[3] = compound: C[C@]12O[C@H](C[C@]1(O)CO)n1c3ccccc3c3c4c(c5c6ccccc6n2c5c31)CNC4=O [Lestaurtinib] + CC(=O)Nc1cccc(-n2c(=O)n(C3CC3)c(=O)c3c(Nc4ccc(I)cc4F)n(C)c(=O)c(C)c32)c1 [Trametinib] (partner 0.02 µM)
How it was run: as §1

[4] = compound: C1/C(=C\C2=CC=CS2)/C(=O)/C(=C/C3=CC=CS3)/C1 + Nc1ncn([C@H]2C[C@H](O)[C@@H](CO)O2)c(=O)n1 [Decitabine] (partner 2 µM)
How it was run: as §1

Cell Line | relative viability ([1]; first compound 0.2 µM) | relative viability ([1]; first compound 0.6325 µM) | relative viability ([1]; first compound 2 µM) | relative viability ([1]; first compound 6.325 µM) | relative viability ([1]; first compound 20 µM) | relative viability ([2]; first compound 0.2 µM) | relative viability ([2]; first compound 0.6325 µM) | relative viability ([2]; first compound 2 µM) | relative viability ([2]; first compound 6.325 µM) | relative viability ([2]; first compound 20 µM) | relative viability ([3]; first compound 0.005 µM) | relative viability ([3]; first compound 0.01581 µM) | relative viability ([3]; first compound 0.05 µM) | relative viability ([3]; first compound 0.1581 µM) | relative viability ([3]; first compound 0.5 µM) | relative viability ([4]; first compound 0.2 µM) | relative viability ([4]; first compound 0.6325 µM) | relative viability ([4]; first compound 2 µM) | relative viability ([4]; first compound 6.325 µM) | relative viability ([4]; first compound 20 µM)
201T | 0.626 | 0.704 | 0.689 | 0.411 | 0.58 | 0.351 | 0.367 | 0.333 | 0.313 | 0.33 | 0.744 | 0.758 | 0.76 | 0.837 | 0.721 | 0.862 | 0.87 | 0.826 | 0.843 | 0.811
A549 |  |  |  |  |  |  |  |  |  |  |  |  |  |  |  | 0.281 | 0.295 | 0.237 | 0.384 | 0.229
A-427 | 0.78 | 0.836 | 0.822 | 0.724 | 0.72 | 1.02 | 1.04 | 0.89 | 0.943 | 0.941 | 0.783 | 0.807 | 0.729 | 0.344 | 0.203 | 0.592 | 0.586 | 0.586 | 0.519 | 0.583
ABC-1 | 1.01 | 1.04 | 0.905 | 0.528 | 1 |  |  |  |  |  |  |  |  |  |  | 1.22 | 1 | 1.2 | 0.87 | 0.972
BEN | 0.739 | 0.635 | 0.774 | 0.643 | 0.679 | 0.82 | 0.781 | 1.03 | 0.662 | 0.657 | 1.23 | 1.43 | 0.998 | 0.709 | 0.553 | 0.666 | 0.724 | 0.893 | 0.643 | 0.644
CAL-12T | 0.597 | 0.84 | 0.592 | 0.537 | 0.547 | 1.28 | 1.25 | 1.24 | 1.16 | 1.07 | 0.364 | 0.337 | 0.314 | 0.288 | 0.23 |  |  |  |  | 
COR-L23 |  |  |  |  |  | 0.2 | 0.193 | 0.196 | 0.182 | 0.199 | 0.755 | 0.652 | 0.272 | 0.317 | 0.0849 | 0.427 | 0.411 | 0.488 | 0.472 | 0.417
COR-L 105 |  |  |  |  |  | 1.37 | 1.04 | 1.26 | 1.06 | 1.13 | 0.408 | 0.419 | 0.446 | 0.347 | 0.341 | 0.526 | 0.668 | 0.699 | 0.444 | 0.7
ChaGo-K-1 | 0.91 | 0.9 | 0.873 | 0.581 | 0.51 | 0.259 | 0.26 | 0.278 | 0.224 | 0.25 | 0.899 | 1.02 | 0.704 | 0.773 | 0.645 | 0.528 | 0.394 | 0.494 | 0.436 | 0.242
EKVX | 0.631 | 0.685 | 0.764 |  | 0.695 | 0.394 | 0.347 | 0.453 |  | 0.389 | 0.507 |  | 0.362 | 0.372 | 0.356 | 0.359 | 0.267 | 0.406 |  | 0.452
